From ChEMBL document CHEMBL3885881, “DrugMatrix”

Species on record: Rattus norvegicus
Experiment: DrugMatrix - Regimen: Daily Repeat
Format: toxicity, organism-based, Sprague-Dawley
Set-up: regimen Daily Repeat, gender Male, age 6-8 weeks
Details: in vivo, po, route oral GAVAGE, vehicle .5 % CMC; for ABSOLUTE BASOPHIL / ABSOLUTE EOSINOPHIL / ABSOLUTE LYMPHOCYTE / ABSOLUTE MONOCYTE / ABSOLUTE SEGMENTED NEUTROPHIL / BASOPHIL / EOSINOPHIL / ERYTHROCYTE COUNT / HEMATOCRIT / HEMOGLOBIN / LEUKOCYTE COUNT / LYMPHOCYTE / MEAN CORPUSCULAR HEMOGLOBIN / MEAN CORPUSCULAR HEMOGLOBIN CONCENTRATION / MEAN CORPUSCULAR VOLUME / MONOCYTE / NEUTROPHIL / NUCLEATED RED BLOOD CELLS / PLATELET COUNT: tissue Blood; for ALANINE AMINOTRANSFERASE / ALBUMIN / ALKALINE PHOSPHATASE / ASPARTATE AMINOTRANSFERASE / BLOOD UREA NITROGEN / CARBON DIOXIDE / CHLORIDE / CHOLESTEROL / CREATINE PHOSPHOKINASE / CREATININE / GLUCOSE / LACTATE DEHYDROGENASE / LIPASE / PHOSPHORUS / POTASSIUM / SODIUM / TOTAL BILIRUBIN / TOTAL PROTEIN / URIC ACID: tissue Plasma
[1] = 3 mg/kg, 120 h, dose level Low, time 5 day
[2] = 17 mg/kg, 72 h, dose level High, time 3 day
[3] = 17 mg/kg, 120 h, dose level High, time 5 day

SMILES: COc1nc(C)nc(Cl)c1N=C1NCCN1 [MOXONIDINE]
- ABSOLUTE BASOPHIL [1]: 0 CELLS/uL
- ABSOLUTE EOSINOPHIL [1]: 0 CELLS/uL
- ABSOLUTE LYMPHOCYTE [1]: 12936.33 CELLS/uL
- ABSOLUTE MONOCYTE [1]: 47.33 CELLS/uL
- ABSOLUTE SEGMENTED NEUTROPHIL [1]: 1849.67 CELLS/uL
- BASOPHIL [1]: 0%
- EOSINOPHIL [1]: 0%
- ERYTHROCYTE COUNT [1]: 5.72 x10E6/uL
- HEMATOCRIT [1]: 36.07%
- HEMOGLOBIN [1]: 14.37 G/DL
- LEUKOCYTE COUNT [1]: 14.83 x10E3/uL
- LYMPHOCYTE [1]: 87%
- MEAN CORPUSCULAR HEMOGLOBIN [1]: 25.13 pg
- MEAN CORPUSCULAR HEMOGLOBIN CONCENTRATION [1]: 39.8 G/DL
- MEAN CORPUSCULAR VOLUME [1]: 63.1 fL
- MONOCYTE [1]: 0.33%
- NEUTROPHIL [1]: 12.67%
- NUCLEATED RED BLOOD CELLS [1]: 0.33 /100WBC
- PLATELET COUNT [1]: 943.67 x10E3/uL
- ALANINE AMINOTRANSFERASE [1]: 44.67 u/L
- ALBUMIN [1]: 4.13 G/DL
- ALKALINE PHOSPHATASE [1]: 346 u/L
- ASPARTATE AMINOTRANSFERASE [1]: 83.67 u/L
- BLOOD UREA NITROGEN [1]: 17.67 mg/dL
- CARBON DIOXIDE [1]: 29.33 mmol/L
- CHLORIDE [1]: 98 MEQ/L
- CHOLESTEROL [1]: 69.67 mg/dL
- CREATINE PHOSPHOKINASE [1]: 484.67 u/L
- CREATININE [1]: 0.19 mg/dL
- GLUCOSE [1]: 147 mg/dL
- LACTATE DEHYDROGENASE [1]: 166.67 u/L
- LIPASE [1]: 10 u/L
- PHOSPHORUS [1]: 13.4 mg/dL
- POTASSIUM [1]: 6.24 MEQ/L
- SODIUM [1]: 145.27 MEQ/L
- TOTAL BILIRUBIN [1]: 0.2 mg/dL
- TOTAL PROTEIN [1]: 6.03 G/DL
- URIC ACID [1]: 1.57 mg/dL
- ABSOLUTE BASOPHIL [2]: 0 CELLS/uL
- ABSOLUTE EOSINOPHIL [2]: 110.67 CELLS/uL
- ABSOLUTE LYMPHOCYTE [2]: 13070 CELLS/uL
- ABSOLUTE MONOCYTE [2]: 298.67 CELLS/uL
- ABSOLUTE SEGMENTED NEUTROPHIL [2]: 1454 CELLS/uL
- BASOPHIL [2]: 0%
- EOSINOPHIL [2]: 0.67%
- ERYTHROCYTE COUNT [2]: 6.02 x10E6/uL
- HEMATOCRIT [2]: 36.53%
- HEMOGLOBIN [2]: 14.5 G/DL
- LEUKOCYTE COUNT [2]: 14.93 x10E3/uL
- LYMPHOCYTE [2]: 87.33%
- MEAN CORPUSCULAR HEMOGLOBIN [2]: 24.07 pg
- MEAN CORPUSCULAR HEMOGLOBIN CONCENTRATION [2]: 39.67 G/DL
- MEAN CORPUSCULAR VOLUME [2]: 60.63 fL
- MONOCYTE [2]: 2%
- NEUTROPHIL [2]: 10%
- NUCLEATED RED BLOOD CELLS [2]: 0 /100WBC
- PLATELET COUNT [2]: 1171.33 x10E3/uL
- ALANINE AMINOTRANSFERASE [2]: 46.67 u/L
- ALBUMIN [2]: 3.9 G/DL
- ALKALINE PHOSPHATASE [2]: 274 u/L
- ASPARTATE AMINOTRANSFERASE [2]: 131.67 u/L
- BLOOD UREA NITROGEN [2]: 17.67 mg/dL
- CARBON DIOXIDE [2]: 23.67 mmol/L
- CHLORIDE [2]: 104 MEQ/L
- CHOLESTEROL [2]: 63 mg/dL
- CREATINE PHOSPHOKINASE [2]: 1708.67 u/L
- CREATININE [2]: 0.17 mg/dL
- GLUCOSE [2]: 146 mg/dL
- LACTATE DEHYDROGENASE [2]: 536.33 u/L
- LIPASE [2]: 8.67 u/L
- PHOSPHORUS [2]: 9.2 mg/dL
- POTASSIUM [2]: 5.68 MEQ/L
- SODIUM [2]: 142.1 MEQ/L
- TOTAL BILIRUBIN [2]: 0.17 mg/dL
- TOTAL PROTEIN [2]: 5.43 G/DL
- URIC ACID [2]: 1.53 mg/dL
- ABSOLUTE BASOPHIL [3]: 0 CELLS/uL
- ABSOLUTE EOSINOPHIL [3]: 74 CELLS/uL
- ABSOLUTE LYMPHOCYTE [3]: 15545.33 CELLS/uL
- ABSOLUTE MONOCYTE [3]: 52.33 CELLS/uL
- ABSOLUTE SEGMENTED NEUTROPHIL [3]: 1961.67 CELLS/uL
- BASOPHIL [3]: 0%
- EOSINOPHIL [3]: 0.33%
- ERYTHROCYTE COUNT [3]: 5.87 x10E6/uL
- HEMATOCRIT [3]: 34.5%
- HEMOGLOBIN [3]: 13.8 G/DL
- LEUKOCYTE COUNT [3]: 17.63 x10E3/uL
- LYMPHOCYTE [3]: 88.67%
- MEAN CORPUSCULAR HEMOGLOBIN [3]: 23.5 pg
- MEAN CORPUSCULAR HEMOGLOBIN CONCENTRATION [3]: 40 G/DL
- MEAN CORPUSCULAR VOLUME [3]: 58.73 fL
- MONOCYTE [3]: 0.33%
- NEUTROPHIL [3]: 10.67%
- NUCLEATED RED BLOOD CELLS [3]: 0.33 /100WBC
- PLATELET COUNT [3]: 1240.33 x10E3/uL
- ALANINE AMINOTRANSFERASE [3]: 48 u/L
- ALBUMIN [3]: 3.97 G/DL
- ALKALINE PHOSPHATASE [3]: 270.33 u/L
- ASPARTATE AMINOTRANSFERASE [3]: 91.33 u/L
- BLOOD UREA NITROGEN [3]: 23 mg/dL
- CARBON DIOXIDE [3]: 25 mmol/L
- CHLORIDE [3]: 104.67 MEQ/L
- CHOLESTEROL [3]: 70.33 mg/dL
- CREATINE PHOSPHOKINASE [3]: 333.33 u/L
- CREATININE [3]: 0.21 mg/dL
- GLUCOSE [3]: 128 mg/dL
- LACTATE DEHYDROGENASE [3]: 169 u/L
- LIPASE [3]: 9.67 u/L
- PHOSPHORUS [3]: 10.3 mg/dL
- POTASSIUM [3]: 5.89 MEQ/L
- SODIUM [3]: 144.27 MEQ/L
- TOTAL BILIRUBIN [3]: 0.17 mg/dL
- TOTAL PROTEIN [3]: 5.67 G/DL
- URIC ACID [3]: 1.43 mg/dL
